US4091114A, “Pharmaceutically active 2-omega-aminoalkoxydiphenylmethanes” (Mitsubishi Chemical Industries Limited, priority 1976, dated 1978)
Where a name gives a salt, the structure may show the parent alone.

How the values were obtained:
[1] = tested on: reserpine induced hypothermia; assay: Antireserpine activity in mice (antagonism of reserpine induced hypothermia); type: in vivo
in vivo = details: mouse, ip
mice = details: mouse, in vivo, ip
[2] = mice, i.p., reserpine 5 mg/kg i.p., Amitriptyline = 1

CN(C)CCCOc1ccccc1Cc1ccccc1 [2-(3-dimethylaminopropoxy)diphenylmethane hydrochloride]
antidepressant activity (in words) ([1]; mouse, in vivo): no such activity

CN(C)CCCCOc1ccccc1Cc1ccccc1.Cl [2-(4-dimethylaminobutoxy) diphenyl methane hydrochloride]
Antireserpine activity, Relative Potency ([1]; mouse, in vivo): 0

CCNCCCCOc1ccccc1Cc1ccccc1 [2-(4-ethylaminobutoxy)diphenylmethane hydrochloride]
Antireserpine activity, Relative Potency ([1]; mouse, in vivo): 0.53 | LD50 (in vivo): 120 mg/kg

CN(C)CCCCCOc1ccccc1Cc1ccccc1 [2-(5-dimethylaminopentyloxy)diphenylmethane hydrochloride]
Antireserpine activity, Relative Potency [1, 2]: 0.23 | antidepressant activity (in words) ([1]; mouse, in vivo): inferior antidepressant activity

CNCCCCCOc1ccccc1Cc1ccccc1 [2-(5-methylaminopentyloxy)diphenylmethane hydrochloride]
Antireserpine activity, Relative Potency ([1]; mouse, in vivo): 0.54 | LD50 (in vivo): 160 mg/kg

c1ccc(Cc2ccccc2OCCCCN2CCCCC2)cc1 [2-[4-(1-piperidyl)butoxy]diphenylmethane hydrochloride]
Antireserpine activity, Relative Potency [1, 2]: 0.41

CN(C)CCC=C1c2ccccc2CCc2ccccc21 [Amitriptyline]
LD50 (mice): 65 mg/kg
